In patent publication US20190077774A1, “PEROXISOME PROLIFERATOR-ACTIVATED RECEPTOR AGONISTS” (City of Hope, priority 2017, published 2019):

How the values were obtained:
Format in all cases: in vivo
[1] = system: PPARα target genes in the liver; assay: Liver gene expression of PPARα targets in treated mice (RT-qPCR); conditions: for Cyp4A3 expression: chronic treatment (FIG. 13); for ACADM expression: time course (FIG. 18)
From the text: FIG. 6. […] Data in same order as triglyceride suppression (FIG. 5). apo CIII and LPL expression inversely correlate with triglyceride suppression for many, but not all, compounds. ACOX1 and Cyp4A3 expression correlate with triglyceride suppression for many, but not all, compounds.
The following oligonucleotide primers were used to amplify insertion sequences: for PPARα, FW-5′-[…]-3′ (SEQ ID NO:1) and Rev-5′-[…]-3′ (SEQ ID NO:2); for RXRα, FW-5′ […]-3′ (SEQ ID NO:3) and Rev-5′-[…]-3′ (SEQ ID NO:4). It has been well established that PPARα agonists fibrates reduce plasma triglycerides largely by inducing hepatic PPARα-mediated transcription of key proteins in hepatic long-chain fatty acid […], such as CPT1 (carnitine palmitoyltransferase-1). DY121 promoted the expression of PPARα, CPT1, and LPL involved in free fatty acid β-oxidation. The mRNA expressions of the PPARα-regulated genes CPT-Ia and ACADM were measured by real-time quantitative-PCR (RT-qPCR). […] A structural specificity of DY121 may be responsible for this regulation. PPARα is predominantly expressed in liver. PPARα modulates fatty acid catabolism in the liver. We next measured the mRNA expression of PPARα target genes in the liver. PPARα agonists exert their actions and attributed to the activation of PPARα which in turn effects an increase in LPL (lipoprotein lipase) gene expression and transrepression of apoC-III (apolipoprotein C-III). Activation of PPARα by its modulators can increase PPARα levels and activate PPARα pathways, leading to increased fatty-acid oxidation and reduction of oxidative stress. DY121 and its analogs induced the expression of PPARα-regulated genes involved in lipid, glucose, and cholesterol metabolism, such as ACOX1 (acyl-CoA oxidase) and Cyp4A3 (cytochrome P450 gene subfamily). Members of the CYP4A gene subfamily catalyze the oxygenation of biologically important fatty acids.
Next, we would like to investigate the therapeutic potential of DY121 to see if it could be candidate for treating NAFLD/NASH. Note that the pathogenesis of NASH has not yet been fully elucidated so far; however, the ‘two-hit’ theory is widely accepted. The first hit is the accumulation of fatty acids in the liver to cause steatosis. […] The newly produced PPARα agonist DY121 and its analogs, as well as WY100=WY14643 and GW3 (GW7647), were evaluated in C57Bl/6J female mice for their ability to alter serum triglyceride, liver gene expression, and glucose. Fibric acid derivatives (100 mg/kg/day) was used as a control, WY100 (WY14, 643, 100 mg/kg/day), GW3 (GW7647-positive control, 3 mg/kg/day), DY121 (˜3 mg/kg/day), respectively. […]

[2] = Blood glucose in treated mice; conditions: after 4 days (FIG. 16)
From the text: FIG. 16. Enhanced PPARα expression and/or activity (particularly in concert with PGC-1α) is expected to increase blood glucose by upregulating gluconeogenic enzymes like PEPCK.
(§1) Next, we would like to investigate the therapeutic potential of DY121 to see if it could be candidate for treating NAFLD/NASH. Note that the pathogenesis of NASH has not yet been fully elucidated so far; however, the ‘two-hit’ theory is widely accepted. The first hit is the accumulation of fatty acids in the liver to cause steatosis. […] The newly produced PPARα agonist DY121 and its analogs, as well as WY100=WY14643 and GW3 (GW7647), were evaluated in C57Bl/6J female mice for their ability to alter serum triglyceride, liver gene expression, and glucose. Fibric acid derivatives (100 mg/kg/day) was used as a control, WY100 (WY14, 643, 100 mg/kg/day), GW3 (GW7647-positive control, 3 mg/kg/day), DY121 (˜3 mg/kg/day), respectively. DY series compounds and controls administered once to C57Bl/6J female mice at 8 weeks of age. Mice were treated at 3 mg/kg for all compounds except WY14643 (100 mg/kg).

C57Bl/6J female mice = assay: Serum triglyceride and lipid effects in C57Bl/6J female mice; conditions: 7 day period (FIG. 10)
[3] = Body weight and food intake of treated mice; conditions: time course over 7 days (FIG. 9)
Experimental: as §1

**Q.** With CC(C)(Sc1ccc(CCN(CCCCC2CCCCC2)C(=O)NC2CCCCC2)cc1)C(=O)O [GW7647, reference compound] as the molecule, how does the “liver CPT-Ia expression” value ([1]; chronic (>3 d) treatment (FIG. 17)) read?
**A.** upregulated

**Q.** What about the Cyp4A3 expression ([1]; liver) of the same molecule?
**A.** consistently

**Q.** And the ACADM expression [1]?
**A.** upregulates

**Q.** What about the glucose [2] of the same molecule?
**A.** increased after 4 days

**Q.** Which results are given for Cc1cccc(Nc2cc(Cl)nc(SCC(=O)O)n2)c1C [WY14643, reference compound]?
**A.** Cyp4A3 expression ([1]; liver): most greatly; apoCIII expression ([1]; liver, chronic treatment up to 7 days (FIG. 11)): suppressed apoCIII only after 7 days treatment; ACADM expression [1]: upregulates; glucose [2]: increased after 4 days; triglycerides, chronic treatment (C57Bl/6J female mice): suppressed triglycerides over the entire 7 day period; weight [3]: caused acute weight loss
